# Experimental data reported in ChEMBL document CHEMBL5625219, “Design, synthesis fusidic acid derivatives alleviate acute lung injury via inhibiting MAPK/NF-κB/NLRP3 pathway” (Eur J Med Chem, 2023).
# The source made the active and inactive calls. No cut-off for these calls is given here.
# How the values were obtained:
# Mus musculus [1] = assay: (§1) In vivo inhibition of NFkappaB activation in LPS-induced BALB/c mouse model of […] assessed as inhibition of NFkappaB degradation at 10 mg/kg, po preadministered with compound for 3 days followed by LPS stimulation for 6 hrs after 1 hrs compound administration on day 3 by Western blot analysis; assay type: functional, organism-based; conditions: time 3.0 day
# Mus musculus [2] = assay: (§2) Anti-inflammatory activity in LPS-induced BALB/c mouse model of […] assessed as inhibition of LPS-induced increase in lung W/D ratio at 10 mg/kg, po preadministered with compound for 3 days followed by LPS stimulation for 6 hrs after 1 hrs compound administration on day 3; assay type: functional, organism-based; conditions: time 3.0 day
# Mus musculus [3] = assay: as §2, with “increase in NO production in serum at 10” for “increase in lung W/D ratio at 10”, “day 3 by Griess reagent based method” for “day 3”; assay type: functional, organism-based; conditions: time 3.0 day
# Mus musculus [4] = assay: as §2, with “increase in IL-6 expression in BALF at 10” for “increase in lung W/D ratio at 10”, “day 3 by ELISA” for “day 3”; assay type: functional, organism-based; conditions: time 3.0 day
# Mus musculus [5] = assay: as §2, with “increase in TNF-alpha expression in BALF at 10” for “increase in lung W/D ratio at 10”, “day 3 by ELISA” for “day 3”; assay type: functional, organism-based; conditions: time 3.0 day
# Mus musculus [6] = assay: as §1, with “inhibition of IkappaBalpha degradation at” for “inhibition of NFkappaB degradation at”; assay type: functional, organism-based; conditions: time 3.0 day
# Mus musculus [7] = assay: as §2, with “increase in TNF-alpha expression in serum at 10” for “increase in lung W/D ratio at 10”, “day 3 by ELISA” for “day 3”; assay type: functional, organism-based; conditions: time 3.0 day
# RAW264.7 = assay: Cytotoxicity against mouse RAW264.7 cells assessed as reduction in cell viability at 30 uM incubated for 24 hrs by MTT assay relative to control; assay type: toxicity, cell-based; conditions: raw264.7, 24 h
# Mus musculus [8] = assay: as §2, with “increase in NO production in BALF at 10” for “increase in lung W/D ratio at 10”, “day 3 by Griess reagent based method” for “day 3”; assay type: functional, organism-based; conditions: time 3.0 day
# [9] = Cytotoxicity against mouse RAW264.7 cells assessed as inhibition of cell growth incubated for 24 hrs by MTT assay; assay type: toxicity, cell-based
# Mus musculus [10] = assay: (§3) Anti-inflammatory activity in LPS-induced BALB/c mouse model of […] assessed as attenuation of lung alveolar hemorrhage at 10 mg/kg, po preadministered with compound for 3 days followed by LPS stimulation for 6 hrs after 1 hrs compound administration on day 3 by H&E staining based analysis; assay type: functional, organism-based; conditions: time 3.0 day
# Mus musculus [11] = assay: as §2, with “increase in IL-6 expression in serum at 10” for “increase in lung W/D ratio at 10”, “day 3 by ELISA” for “day 3”; assay type: functional, organism-based; conditions: time 3.0 day
# Mus musculus [12] = assay: as §3, with “inflammatory cell infiltration in lungs” for “lung alveolar hemorrhage”; assay type: functional, organism-based; conditions: time 3.0 day
compound,measurement,setting,value
CC(=O)O[C@H]1C[C@@]2(C)[C@@H](C[C@@H](O)[C@H]3[C@@]4(C)CC[C@@H](O)[C@@H](C)[C@@H]4CC[C@@]32C)/C1=C(\CCC=C(C)C)C(=O)O [FUSIDIC ACID],inhibition,Mus musculus [1],Active
same,Activity,Mus musculus [2],Active
same,Activity,Mus musculus [3],Active
same,Activity,Mus musculus [4],Active
same,Activity,Mus musculus [5],Active
same,inhibition,Mus musculus [6],Active
same,Activity,Mus musculus [7],Active
same,Activity,RAW264.7,101.08%
same,Activity,Mus musculus [8],Active
same,IC50 at 24 h,[9],61.3 µM
same,Activity,Mus musculus [10],Active
same,Activity,Mus musculus [11],Active
same,Activity,Mus musculus [12],Active
